Measured values: patent US20240148821A1, “PHARMACEUTICAL USE OF CYCLIC PEPTIDE COMPOUND” (CHUGAI SEIYAKU KABUSHIKI KAISHA, priority 2021, published 2024)
Numbered stars: 1 amine (or outer) side, 2 acyl side, 3 side chain; on linkers, the order of the positions; unused ones are H or OH. Bridge positions count the residues as written; N and C are the ends. Square brackets hold non-standard residues; d marks the D form. Peptide text beside a SMILES is read from it. * marks the point of attachment. hPhe(3,5-F2-4-CF3) = N[C@@H](CCc1cc(F)c(C(F)(F)F)c(F)c1)C(=O)O; hPhe(3-Cl-4-CF3) = N[C@@H](CCc1ccc(C(F)(F)F)c(Cl)c1)C(=O)O; hPhe(3-F,4-CF3) = N[C@@H](CCc1ccc(C(F)(F)F)c(F)c1)C(=O)O; NEtPhe(4-CF3) = CCN[C@@H](Cc1ccc(C(F)(F)F)cc1)C(=O)O; hPhe(4-CF3) = N[C@@H](CCc1ccc(C(F)(F)F)cc1)C(=O)O; X37 = CC(C)(C)NC(=O)COC[C@H](CC(=O)[*:1])N[*:2]; NMePhe(4-Cl) = CN[C@@H](Cc1ccc(Cl)cc1)C(=O)O; NMePhe(3-F) = CN[C@@H](Cc1cccc(F)c1)C(=O)O; NMedβ3hAla = C[C@H](CC(=O)[*:2])N(C)[*:1]; NMeGly(cPent) = CN[C@H](C(=O)O)C1CCCC1; NMeAla(cPr) = CN[C@@H](CC1CC1)C(=O)O; NMeCha = CN[C@@H](CC1CCCCC1)C(=O)O; Hyp = O=C(O)[C@@H]1C[C@@H](O)CN1; NMeChg = CN[C@H](C(=O)O)C1CCCCC1; NMeF = CN[C@@H](Cc1ccccc1)C(=O)O; NMeI = CC[C@H](C)[C@H](NC)C(=O)O; d(β3hL) = CC(C)C[C@@H](N)CC(=O)O; NMeD = CN[C@@H](CC(=O)O)C(=O)O; NMeL = CN[C@@H](CC(C)C)C(=O)O; Tle = CC(C)(C)[C@H](N)C(=O)O; NMeV = CN[C@H](C(=O)O)C(C)C; d(β3hA) = C[C@@H](N)CC(=O)O; NMeS = CN[C@@H](CO)C(=O)O; Morpholide = C1CN(*)CCO1; NMeA = CN[C@@H](C)C(=O)O; Piperidide = C1CCN(*)CC1; dNMeA = CN[C@H](C)C(=O)O; Ac5c = NC1(C(=O)O)CCCC1; Aze = O=C(O)[C@@H]1CCN1; CH2CMe2OH = CC(C)(O)C*; Sar = CNCC(=O)O; Propyl = CCC*

biological target: protein-protein interaction between Kras and SOS1 (biotin-tagged human Kras loaded with GDP, His-tagged human SOS1) (Homo sapiens (Human), UniProt P01116, G12D); experiment: Protein-protein interaction inhibition between Kras and SOS1 (KrasG12D-SOS PPI) using AlphaScreen; format: biochemical; conditions: AlphaScreen; biotin-tagged human Kras loaded with GDP, His-tagged human SOS1; read-out: KRAS G12D-SOS PPI IC50;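 note: kras produced in E. coli, Ni-coupled donor beads and streptavidin acceptor beads, excitation 680 nm with emission detected at 520–620 nm via singlet oxygen transfer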

Row | Compound | IC50
1 | CC[C@H](C)[C@@H]1NC(=O)[C@H](C(C)C)N(C)C(=O)C[C@@H](COCC(=O)NC(C)(C)C)NC(=O)[C@H](CC(C)C)N(C)C(=O)C2(CCCC2)NC(=O)[C@H](CC(C)C)N(C)C(=O)[C@H](CCc2ccc(C(F)(F)F)cc2)NC(=O)CN(C)C(=O)[C@H](Cc2ccc(Cl)cc2)N(C)C(=O)CN(C)C(=O)CN(C)C1=O [Compound 759] ([NMeV]I[Sar][Sar][NMePhe(4-Cl)][Sar][hPhe(4-CF3)][NMeL][Ac5c][NMeL]; linker N-C via X37) | 160 nM
2 | CC[C@H](C)[C@@H]1NC(=O)[C@H](C)N(C)C(=O)C[C@@H](C)NC(=O)[C@H](CC(C)C)N(C)C(=O)[C@H](Cc2ccccc2)N(C)C(=O)[C@H](C(C)(C)C)NC(=O)[C@H](CCc2ccc(C(F)(F)F)cc2)NC(=O)CN(C)C(=O)[C@H](Cc2ccc(Cl)cc2)N(C)C(=O)CN(C)C(=O)CN(C)C1=O [Compound 764] (cyclo(I[Sar][Sar][NMePhe(4-Cl)][Sar][hPhe(4-CF3)][Tle][NMeF][NMeL][d(β3hA)][NMeA])) | 83 nM
3 | CC[C@H](C)[C@@H]1NC(=O)[C@H](CC2CC2)N(C)C(=O)C[C@@H](C)NC(=O)[C@H](C(C)C)N(C)C(=O)C2(CCCC2)NC(=O)[C@@H]2CCCN2C(=O)[C@H](CCc2ccc(C(F)(F)F)c(Cl)c2)NC(=O)CN(C)C(=O)[C@H](CC2CCCCC2)N(C)C(=O)[C@@H]2CCN2C(=O)[C@H](C)N(C)C1=O [Compound 771] (cyclo([Ac5c][NMeV][d(β3hA)][NMeAla(cPr)]I[NMeA][Aze][NMeCha][Sar][hPhe(3-Cl-4-CF3)]P)) | 25 nM
4 | CCCOC[C@H]1C(=O)N(C)CC(=O)N[C@@H](CCc2ccc(C(F)(F)F)c(F)c2)C(=O)N2CCC[C@H]2C(=O)NC2(CCCC2)C(=O)N(C)[C@@H](C2CCCC2)C(=O)N(C)[C@H](C)CC(=O)N(C)[C@@H](CC(C)C)C(=O)N[C@@H]([C@@H](C)CC)C(=O)N(C)[C@@H](C)C(=O)N2CC[C@H]2C(=O)N1C [Compound 776] (cyclo([Ac5c][NMeGly(cPent)][NMedβ3hAla][NMeL]I[NMeA][Aze][NMeS](Propyl)[Sar][hPhe(3-F,4-CF3)]P)) | 7.3 nM
5 | CCO[C@@H]1C[C@H]2C(=O)NC3(CCCC3)C(=O)N(C)[C@@H](C3CCCC3)C(=O)N(C)[C@H](C)CC(=O)N(C)[C@@H](CC(C)C)C(=O)N[C@@H]([C@@H](C)CC)C(=O)N[C@@H](C)C(=O)N3CC[C@H]3C(=O)N(CC)[C@@H](Cc3ccc(C(F)(F)F)cc3)C(=O)N(C)CC(=O)N[C@@H](CCc3cc(F)c(C(F)(F)F)c(F)c3)C(=O)N2C1 [Compound 785] (cyclo(A[Aze][NEtPhe(4-CF3)][Sar][hPhe(3,5-F2-4-CF3)][Hyp](Et)[Ac5c][NMeGly(cPent)][NMedβ3hAla][NMeL]I)) | 3.5 nM
6 | CC[C@H](C)[C@@H]1NC(=O)[C@H](CC(C)C)N(C)C(=O)C[C@@H](C(=O)N2CCCCC2)N(C)C(=O)[C@H](C2CCCCC2)N(C)C(=O)C2(CCCC2)NC(=O)[C@H](COCC(C)(C)O)N(C)C(=O)[C@H](CCc2ccc(C(F)(F)F)c(Cl)c2)NC(=O)CN(C)C(=O)[C@H](CC2CCCCC2)N(C)C(=O)CN(C)C(=O)CN(C)C1=O [Compound 789] ([NMeL]I[Sar][Sar][NMeCha][Sar][hPhe(3-Cl-4-CF3)][NMeS](CH2CMe2OH)[Ac5c][NMeChg][NMeD]-Piperidide; lactam N-11) | 0.61 nM
7 | CC[C@H](C)[C@@H]1NC(=O)[C@H](CC(C)C)N(C)C(=O)C[C@@H](C(=O)N2CCOCC2)N(C)C(=O)[C@H]([C@@H](C)CC)N(C)C(=O)C2(CCCC2)NC(=O)[C@@H]2CCCN2C(=O)[C@H](CCc2ccc(C(F)(F)F)c(F)c2)NC(=O)CN(C)C(=O)[C@H](CC2CCCCC2)N(C)C(=O)[C@@H]2CCN2C(=O)[C@H](C)N(C)C1=O [Compound 790] ([NMeL]I[NMeA][Aze][NMeCha][Sar][hPhe(3-F,4-CF3)]P[Ac5c][NMeI][NMeD]-Morpholide; lactam N-11) | 2.5 nM
8 | CC[C@H](C)[C@@H]1NC(=O)[C@H](C)N(C)C(=O)C[C@@H](C)NC(=O)[C@H](C2CCCC2)N(C)C(=O)C2(CCCC2)NC(=O)[C@@H]2CCCN2C(=O)[C@H](CCc2ccc(C(F)(F)F)c(Cl)c2)NC(=O)[C@@H](C)N(C)C(=O)[C@H](Cc2cccc(F)c2)N(C)C(=O)[C@@H]2CCN2C(=O)[C@H](C)N(C)C1=O [Compound 795] (cyclo([Ac5c][NMeGly(cPent)][d(β3hA)][NMeA]I[NMeA][Aze][NMePhe(3-F)][dNMeA][hPhe(3-Cl-4-CF3)]P)) | 72 nM
9 | CC[C@H](C)[C@@H]1NC(=O)[C@H](CC(C)C)N(C)C(=O)C[C@@H](CC(C)C)NC(=O)[C@H]([C@@H](C)CC)N(C)C(=O)C2(CCCC2)NC(=O)[C@@H]2CCCN2C(=O)[C@H](CCc2ccc(C(F)(F)F)c(Cl)c2)NC(=O)CN(C)C(=O)[C@H](CC2CCCCC2)N(C)C(=O)[C@@H]2CCN2C(=O)[C@H](C)N(C)C1=O [Compound 798] (cyclo([Ac5c][NMeI][d(β3hL)][NMeL]I[NMeA][Aze][NMeCha][Sar][hPhe(3-Cl-4-CF3)]P)) | 59 nM
